Assay results as given in US20260138961A1, “MODULATORS OF MITOCHONDRIAL DNA REPLICATION” (Pretzel Therapeutics, Inc., priority 2022, published 2026).

Target: T1, POLγA:R309C (Homo sapiens, UniProt P54098, R309C)
T1 sequence (P54098 1-1239 R309C): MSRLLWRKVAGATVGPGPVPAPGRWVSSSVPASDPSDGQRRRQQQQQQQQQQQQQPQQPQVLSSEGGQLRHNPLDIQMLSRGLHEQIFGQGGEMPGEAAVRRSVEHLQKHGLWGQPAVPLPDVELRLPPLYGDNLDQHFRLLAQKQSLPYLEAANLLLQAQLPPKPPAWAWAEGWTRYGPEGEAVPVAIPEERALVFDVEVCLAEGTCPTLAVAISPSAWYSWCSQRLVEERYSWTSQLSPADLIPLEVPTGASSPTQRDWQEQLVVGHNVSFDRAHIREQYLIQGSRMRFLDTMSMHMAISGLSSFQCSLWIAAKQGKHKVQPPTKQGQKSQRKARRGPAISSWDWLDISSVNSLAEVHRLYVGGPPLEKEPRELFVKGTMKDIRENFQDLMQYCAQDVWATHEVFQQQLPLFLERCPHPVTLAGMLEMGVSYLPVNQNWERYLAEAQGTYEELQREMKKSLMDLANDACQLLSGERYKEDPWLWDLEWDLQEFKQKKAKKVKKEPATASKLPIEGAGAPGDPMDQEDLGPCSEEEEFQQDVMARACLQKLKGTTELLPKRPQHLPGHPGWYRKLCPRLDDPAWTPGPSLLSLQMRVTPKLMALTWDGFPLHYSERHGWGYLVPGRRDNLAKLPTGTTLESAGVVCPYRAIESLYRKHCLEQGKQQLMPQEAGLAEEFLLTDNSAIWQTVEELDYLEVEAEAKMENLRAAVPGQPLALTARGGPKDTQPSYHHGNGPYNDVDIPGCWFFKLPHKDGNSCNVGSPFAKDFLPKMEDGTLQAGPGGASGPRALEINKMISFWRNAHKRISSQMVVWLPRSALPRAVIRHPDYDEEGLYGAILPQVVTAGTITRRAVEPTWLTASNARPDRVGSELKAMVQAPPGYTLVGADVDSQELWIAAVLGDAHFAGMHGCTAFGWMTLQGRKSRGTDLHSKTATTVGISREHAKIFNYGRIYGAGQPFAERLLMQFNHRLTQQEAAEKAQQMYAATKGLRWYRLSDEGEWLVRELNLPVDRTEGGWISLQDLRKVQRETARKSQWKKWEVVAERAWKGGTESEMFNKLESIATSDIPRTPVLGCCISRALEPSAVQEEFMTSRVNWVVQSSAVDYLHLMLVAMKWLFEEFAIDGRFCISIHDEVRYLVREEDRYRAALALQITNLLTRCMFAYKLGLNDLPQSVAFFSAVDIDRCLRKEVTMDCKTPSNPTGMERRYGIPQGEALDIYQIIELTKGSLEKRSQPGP
T1 sequence (Q9UHN1 1-485 partner): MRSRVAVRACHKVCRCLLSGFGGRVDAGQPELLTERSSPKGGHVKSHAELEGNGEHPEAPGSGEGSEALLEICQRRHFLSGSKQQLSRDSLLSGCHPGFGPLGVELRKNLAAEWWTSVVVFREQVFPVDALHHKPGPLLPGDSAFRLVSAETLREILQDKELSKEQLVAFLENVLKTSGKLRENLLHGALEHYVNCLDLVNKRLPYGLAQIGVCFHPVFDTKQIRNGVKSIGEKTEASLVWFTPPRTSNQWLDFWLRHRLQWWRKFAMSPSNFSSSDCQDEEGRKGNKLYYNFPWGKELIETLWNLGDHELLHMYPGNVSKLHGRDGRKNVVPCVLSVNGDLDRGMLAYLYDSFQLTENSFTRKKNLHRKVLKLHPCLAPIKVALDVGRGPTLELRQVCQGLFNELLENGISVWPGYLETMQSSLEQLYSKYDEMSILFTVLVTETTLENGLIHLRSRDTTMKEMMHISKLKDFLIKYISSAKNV
Assay: DNA polymerization assay, POLγA:R309C mutant
Assay type: biochemical
Details: stimulation of polymerase activity, primed M13mp18 ssDNA, 37° C. 2 hours
Experimental: DNA Polymerization Assay to Monitor Effects on Human Wildtype POLγ and Four Disease-Causing Mutant Variants of Human POLγ.
The ability of small molecules to stimulate the polymerase activity of POLγ was analyzed in a quantitative fluorescence SYBR Green I assay with fluorescence intensity (FI) readout.
In the presence of dNTPs, wild type human POLγ and mutant derivatives thereof were incubated with single-stranded, circular M13mp18 ssDNA hybridized to a short DNA oligonucleotide that functions as a primer for initiation of DNA synthesis. POLγ and mutant derivatives thereof will extend the primer and use the M13mp18 molecule as a template to synthesize long stretches of double-stranded DNA. SYBR Green I, which is a double-stranded DNA-binding dye, was used to quantify formation of double-stranded DNA in the reaction. When bound to double-stranded DNA, SYBR Green I fluorescence increases by up to 100-fold.
The assay was performed in the 384-well plate format. Upon addition of compounds, changes in double-stranded DNA synthesis activity can be monitored by following effects on fluorescent intensity.
The reactions also contained the accessory POLγB subunit, and the human mitochondrial single-stranded DNA binding protein (mtSSB).
The DNA template mixture used in the assay contained 0.5 nM primed M13 mp18 ssDNA, 400 nM mtSSB, 0.1 mM Tris-HCl (pH 8.0), 0.1 mM dNTP, 10 mM MgCl2, 0.1 mg/mL BSA, 1 mM TCEP solution, and 0.02% Triton X-100. The DNA template mixture for the wild type protein contained either 100 μM dNTP, 1 μM dNTP, or 0.1 μM dNTP, designated in Table 2 as 100 μM, 1 μM, and 0.1 μM, respectfully.
Microplates with compounds (0.1 μL in each well) to be tested in the assay were prepared from 10 mM compound stocks in 100% DMSO, and equal amounts of DMSO without any compound were added to positive and negative control wells.
The protein mixture was dispensed (5 μL into each well) into compound plates and incubated at 37° C. for 15 minutes. After incubation, 5 μL of the DNA template mixture was dispensed into each well. The plates were then incubated at 37° C. for 2 hours.
During incubation, a combined stop buffer and detection reagent solution was prepared. The buffer contained 25 mM EDTA (pH 8.0), 0.02% Triton X-100, and SYBR Green I [Invitrogen] diluted 10,000× (for fluorescent readout). EDTA will stop the enzymatic reaction by chelating magnesium ions.

Going from Cc1cc(S(=O)(=O)Nc2ccc3ccn(C)c3c2)c(C)cc1Cl [Example 72, 4-chloro-2,5-dimethyl-N-(1-methyl-1H-indol-6-yl)benzenesulfonamide] to Cc1nc2ccc(NS(=O)(=O)c3cc(C)c(Cl)cc3C)cc2s1 [Example 73, 4-chloro-2,5-dimethyl-N-(2-methylbenzo[d]thiazol-6-yl)benzenesulfonamide], the AC50 falls from 30 µM to 1 µM (30-fold).

Going from Cc1cc(S(=O)(=O)Nc2cccc(-c3ncc(C4CC4)s3)c2)c(C)cc1Cl [Example 76, 4-chloro-N-(3-(5-cyclopropylthiazol-2-yl)phenyl)-2,5-dimethylbenzenesulfonamide] to Cc1cc(S(=O)(=O)Nc2cccc(-c3ncc(CO)s3)c2)c(C)cc1Cl [Example 89, 4-chloro-N-(3-(5-(hydroxymethyl)thiazol-2-yl)phenyl)-2,5-dimethylbenzenesulfonamide], the AC50 falls from 6 µM to 4 µM (1.5-fold).

Going from Cc1csc(-c2ccccc2NS(=O)(=O)c2cc(C)c(Cl)cc2C)n1 [Example 80, 4-chloro-2,5-dimethyl-N-(2-(4-methylthiazol-2-yl)phenyl)benzenesulfonamide] to Cc1cc(S(=O)(=O)Nc2csc(-c3ccccc3)n2)c(C)cc1Cl [Example 81, 4-chloro-2,5-dimethyl-N-(2-phenylthiazol-4-yl)benzenesulfonamide], the AC50 falls from > 100 µM to 0.6 µM.

Cc1cc(S(=O)(=O)Nc2cccc(-c3ncc(CN(C)C)s3)c2)c(C)cc1Cl [Example 87, 4-chloro-N-(3-(5-((dimethylamino)methyl)thiazol-2-yl)phenyl)-2,5-dimethylbenzenesulfonamide] was tested, and the AC50 was 6 µM.
